# Values quoted from earlier work as cited in patent US9890223B2, “Resin particles and process for producing same, antiglare film, light-diffusing resin composition, and external preparation” (SEKISUI PLASTICS CO., LTD., priority 2010, dated 2018).
# Details: 20° C.
row,Structure (SMILES),Solubility in Water
1,C=C(C)C(=O)OCCCCCCCCCCCC [Lauryl methacrylate],0.01 or less % by weight
2,C=C(C)C(=O)OC [Methyl methacrylate],1.72 % by weight
3,C=C(C)C(=O)OCCCC [n-butyl methacrylate],0.04 % by weight
4,C=C(C)C(=O)OCC(C)C [Isobutyl methacrylate],0.04 % by weight
5,C=C(C)C(=O)OC(C)(C)C [tert-butyl methyacrylate],0.05 % by weight
